Source: article doi:10.1101/2025.01.02.631061v1 (biorxiv, 2025)
Read-outs that look alike come from different tables or passages of the source.

What was measured:
UnBGl1 [1] = test: pNP release, absorbance […] nm, Michaelis-Menten; assay type: biochemical, soil metagenome; conditions: pH 6.0, 55 °C, 10 min
UnBGl1 [2] = conditions: optimum pH 6.5, 55 °C, 10 min
UnBGl1 [3] = conditions: pH 6.0, 55 °C, 10 min
UnBGl1 [4] = conditions: optimum pH 5.5, 50 °C, 30 min
UnBGl1 [5] = conditions: pH 6.0, 50 °C, 30 min

`O=[N+]([O-])c1ccc(O[C@@H]2O[C@H](CO)[C@@H](O)[C@H](O)[C@H]2O)cc1` [4-nitrophenyl β-D-glucopyranoside] showed a Km (UnBGl1 [1]) of 0.92 ± 0.05 mM, a Km (UnBGl1 [2]) of 0.65 ± 0.04 mM and a Km (UnBGl1 [3]) of 7.35 ± 3 mM.
In the case of `OC[C@H]1O[C@@H](O[C@H]2[C@H](O)[C@@H](O)C(O)O[C@@H]2CO)[C@H](O)[C@@H](O)[C@@H]1O` (some centres unmarked) [cellobiose], the Km (UnBGl1 [4]) is reported as 22.9 ± 1.1 mM and the Km (UnBGl1 [5]) is reported as 34.6 ± 2.4 mM.
